Results reported in patent US9469650B2, “Melampomagnolide B derivatives” (BOARD OF TRUSTEES OF THE UNIVERSITY OF ARKANSAS, priority 2013, dated 2016).
Like-named read-outs stand apart in the source and are kept apart here.

Legend:
[1] = tested on: NCI-H460; assay: panel of 60 human tumor cell lines, growth inhibition (Non-Small Cell Lung Cancer); conditions: Homo sapiens
[2] = tested on: NCI-H226; assay: as above; conditions: Homo sapiens
[3] = tested on: MCF7; assay: panel of 60 human tumor cell lines, growth inhibition (Breast Cancer); conditions: Homo sapiens
[4] = tested on: HOP-62; assay: panel of 60 human tumor cell lines, growth inhibition (Non-Small Cell Lung Cancer); conditions: Homo sapiens
[5] = tested on: SN12C; assay: panel of 60 human tumor cell lines, growth inhibition (Renal Cancer); conditions: Homo sapiens
[6] = tested on: SK-MEL-2; assay: panel of 60 human tumor cell lines, growth inhibition (Melanoma); conditions: Homo sapiens
[7] = tested on: HCC-2998; assay: panel of 60 human tumor cell lines, growth inhibition (Colon Cancer); conditions: Homo sapiens
[8] = tested on: HL-60(TB)
[9] = tested on: HOP-92; assay: panel of 60 human tumor cell lines, growth inhibition (Non-Small Cell Lung Cancer); conditions: Homo sapiens
[10] = tested on: CAKI-1; assay: panel of 60 human tumor cell lines, growth inhibition (Renal Cancer); conditions: Homo sapiens
[11] = tested on: SK-MEL-5; assay: panel of 60 human tumor cell lines, growth inhibition (Melanoma); conditions: Homo sapiens
[12] = tested on: DU-145; assay: panel of 60 human tumor cell lines, growth inhibition (Prostate Cancer); conditions: Homo sapiens
[13] = tested on: SK-OV-3; assay: panel of 60 human tumor cell lines, growth inhibition (Ovarian Cancer); conditions: Homo sapiens
[14] = tested on: HCT-15; assay: panel of 60 human tumor cell lines, growth inhibition (Colon Cancer); conditions: Homo sapiens
[15] = tested on: RXF 393; assay: panel of 60 human tumor cell lines, growth inhibition (Renal Cancer); conditions: Homo sapiens
[16] = tested on: MDA-MB-231/ATCC; assay: panel of 60 human tumor cell lines, growth inhibition (Breast Cancer); conditions: Homo sapiens
[17] = tested on: CCRF-CEM; assay: panel of 60 human tumor cell lines, growth inhibition (Leukemia); conditions: Homo sapiens
[18] = tested on: LOX IMVI; assay: panel of 60 human tumor cell lines, growth inhibition (Melanoma); conditions: Homo sapiens
[19] = tested on: MOLT-4; assay: panel of 60 human tumor cell lines, growth inhibition (Leukemia); conditions: Homo sapiens

**Q.** What does the source list for C=C1C(=O)O[C@H]2[C@H]1CC/C(COC(=O)NCCCCCCO)=C\CC[C@@]1(C)O[C@@H]21 [JVM 2-31]?
**A.** GI50 ([1]; NCI-H460): 20.3 µM; CC50 ([1]; NCI-H460, read-out: LC50): > 100 µM; IC (TGI) ([1]; NCI-H460, read-out: TGI): 51.2 µM; GI50 ([2]; NCI-H226): 4.92 µM; CC50 ([2]; NCI-H226, read-out: LC50): 87.2 µM; IC (TGI) ([2]; NCI-H226, read-out: TGI): 23.9 µM; GI50 ([3]; MCF7, MCF7, NCI five dose): 4.92 µM; CC50 ([3]; MCF7, read-out: LC50): 76.3 µM; IC (TGI) ([3]; MCF7, read-out: TGI): 12 µM; GI50 ([4]; HOP-62): 19.6 µM; CC50 ([4]; HOP-62, read-out: LC50): 86.7 µM; IC (TGI) ([4]; HOP-62, read-out: TGI): 41.2 µM; GI50 [5]: 10.4 µM; CC50 ([5]; read-out: LC50): 69.7 µM; IC (TGI) ([5]; read-out: TGI): 27 µM; GI50 ([6]; SK-MEL-2): 14.4 µM; CC50 ([6]; SK-MEL-2, read-out: LC50): 70.4 µM; IC (TGI) ([6]; SK-MEL-2, read-out: TGI): 31.9 µM; GI50 ([7]; HCC 2998): 15.6 µM; CC50 ([7]; HCC 2998, read-out: LC50): 61.9 µM; IC (TGI) ([7]; HCC 2998, read-out: TGI): 31.1 µM; Percent Growth ([8]; Log10 Concentration −4.0): −49%; Percent Growth ([8]; Log10 Concentration −5.0): 9%; Percent Growth ([8]; Log10 Concentration −6.0): 103%; Percent Growth ([8]; Log10 Concentration −7.0): 107%; Percent Growth ([8]; Log10 Concentration −8.0): 115%; GI50 ([9]; HOP-92, HOP-92, NCI five dose): 2.77 µM; CC50 ([9]; HOP-92, read-out: LC50): 38.5 µM; IC (TGI) ([9]; HOP-92, read-out: TGI): 9.99 µM; GI50 ([10]; CAKI-1): 3.44 µM; CC50 ([10]; CAKI-1, read-out: LC50): 40.2 µM; IC (TGI) ([10]; CAKI-1, read-out: TGI): 15.5 µM; GI50 ([11]; SK-MEL-5): 6.8 µM; CC50 ([11]; SK-MEL-5, read-out: LC50): 54.5 µM; IC (TGI) ([11]; SK-MEL-5, read-out: TGI): 21.7 µM; GI50 ([12]; DU-145): 3.68 µM; CC50 ([12]; DU-145, read-out: LC50): 39.4 µM; IC (TGI) ([12]; DU-145, read-out: TGI): 14.3 µM; GI50 ([13]; SK-OV-3): 28.6 µM; CC50 ([13]; SK-OV-3, read-out: LC50): > 100 µM; IC (TGI) ([13]; SK-OV-3, read-out: TGI): 69.9 µM; GI50 ([14]; HCT-15): 2.56 µM; CC50 ([14]; HCT-15, read-out: LC50): 49.5 µM; IC (TGI) ([14]; HCT-15, read-out: TGI): 12.1 µM; GI50 ([15]; RXF 393, RXF 393, NCI five dose): 1.24 µM; CC50 ([15]; RXF 393, read-out: LC50): 40.2 µM; IC (TGI) ([15]; RXF 393, read-out: TGI): 9.75 µM; GI50 ([16]; MDA-MB-231): 8.01 µM; CC50 ([16]; MDA-MB-231, read-out: LC50): 57.9 µM; IC (TGI) ([16]; MDA-MB-231, read-out: TGI): 20.3 µM; GI50 ([17]; NCI five dose): 2.78 µM; CC50 ([17]; read-out: LC50): > 100 µM; IC (TGI) ([17]; read-out: TGI): 10.7 µM; GI50 ([18]; NCI five dose): 3.45 µM; CC50 ([18]; read-out: LC50): 42.1 µM; IC (TGI) ([18]; read-out: TGI): 13.1 µM; GI50 ([19]; MOLT-4): 5.33 µM; CC50 ([19]; MOLT-4, read-out: LC50): > 100 µM; IC (TGI) ([19]; MOLT-4, read-out: TGI): 26.6 µM
